From patent publication US20210102215A1, “TREATMENT AND PREVENTION OF VIRAL INFECTION” (priority 2016, published 2021)
d = 2'-deoxy (DNA); r = 2'-OH (RNA)

Columns and labels:
HCV sub-genomic replicon = experiment: HCV genome replication in a synthetic sub-genomic replicon line; settings: dose-dependent (FIG. 4a)
Bmal1 mRNA = Bmal1 mRNA levels by qPCR in hepatocytes / Huh-7 cells; settings: qPCR (FIG. 3a)
HCV infected Huh-7 cells = experiment: Viral RNA load in chronic HCV infected cells by qPCR; format: cell-based, hepatitis C virus; settings: increasing dose, 24 hours, qPCR (FIG. 5a)
Procedure: To assess the ability of REV-ERB activators to limit HCV RNA replication, HCV infected Huh-7 cells (verified by NSSA staining) were treated with GSK4112 or SR9009 at a range of doses. […], HCV infection levels were quantified by reverse transcriptase polymerase chain measurement of viral RNA (see FIG. 4b).
Huh-7 cells were treated with either REV-ERBα agonist GSK4112 or SR9009 for 16 hour at a range of doses. Medium containing the drug was then removed following viral inoculation and infectivity assessed 24 hours later. To evaluate the efficacy of these drugs in viral replication, chronic infected HCV or HBV cells were treated with REV-ERBα activators at a range of concentrations and viral load determined by real-time qPCR 24 hours later.
(§1) The ability of REV-ERBα activators to reduce viral burden of chronic HCV infected cells was then tested. […] An identical assay was performed in two chronic HBV infected cell lines—2215 and AD38.
HCVcc SA13/JFH-1 infected Huh-7 cells were also treated with increasing concentrations of GSK2667 for 24 h and viral RNA levels measured after 24 h.

[1] = system: pseudoparticles expressing viral glycoproteins (HCV, VSV, Lassa, Flu, MLC, Ebola); format: cell-based
HIV virus (NL4.3) = experiment: HIV (NL4.3) infection of TZM-bl cells, HIV promoter luciferase assay; settings: for HIV infection (HIV promoter activity): increasing dose, 24 h (FIGS. 11a, 11b)
Bna1 promoter = settings: cited from earlier work
HCVpp = format: cell-based, hepatitis C virus; settings: cells treated with Rev-erbα agonists (FIG. 3c, 3d)
Zika virus = settings: Huh-7, infectivity after 24 h and 48 h (FIG. 12)
[2] = system: chronic HBV infected cell lines 2215 and AD38; experiment: HBV RNA levels in chronic HBV infected cell lines; format: cell-based, hepatitis B virus; settings: 2215 and AD38 cells, 48 hours (FIG. 5c)
Procedure: Huh-7 cells were treated with either REV-ERBα agonist GSK4112 or SR9009 for 16 hour at a range of doses. Medium containing the drug was then removed following viral inoculation and infectivity assessed 24 hours later.
as §1

[3] = system: HCV genotype 3a S52 replicon; settings: REV-ERB agonists 20 μM with increasing DAA, 48 h (FIGS. 10f, 10g)
[4] = system: HCV sub-genomic replicons genotypes 1b, 2a, 3a; experiment: HCV sub-genomic luciferase replicons genotypes 1-3 in Huh-7.5-SEC14L2 cells; settings: genotypes 1-3 replicons, increasing concentrations, 24 h (FIGS. 10c-e)

Molecule | Replication of the HCV genome (HCV sub-genomic replicon) | Bmal1 mRNA levels (Bmal1 mRNA) | Viral load (HCV genomic RNA) (HCV infected Huh-7 cells) | HIV infection (HIV promoter activity) (HIV virus (NL4.3)) | Effect on the anti-viral activity (HCV entry) of REV-ERBα agonists GSK4112/SR9009 (HCVpp) | Combined effect of REV-ERB agonist and DAA on HCV genotype 3 replication [3] | other results
CC(C)(C)OC(=O)CN(Cc1ccc(Cl)cc1)Cc1ccc([N+](=O)[O-])s1 [GSK4112] | inhibited | decreased Bmal1 mRNA levels | dose-dependent reduction in viral load | inhibit HIV infection | – | – | Entry of pseudoparticles of multiple viruses [1]: inhibitory effect on entry was replicated across multiple viruses including lassa and ebola
CS(=O)(=O)N(Cc1ccco1)CC(O)Cn1c2ccccc2c2ccccc21 (stereo not shown) [KL001] | – | – | – | – | – | – | Bmal1 promoter activity (Bna1 promoter): inhibit Bna1 promoter activity
CCOC(=O)C1Cc2ccccc2CN1C(=O)c1ccc(SC)s1 (stereo not shown) [SR8278] | – | – | – | promotes HIV infection | rescued | – | –
CCOC(=O)N1CCC(CN(Cc2ccc(Cl)cc2)Cc2ccc([N+](=O)[O-])s2)C1 (stereo not shown) [SR9009] | inhibited | decreased Bmal1 mRNA levels | dose-dependent reduction in viral load | inhibit HIV infection | – | additive effects | Zika infection (Zika virus): inhibit Zika infection; HBV RNA levels [2]: significantly reduced HBV RNA levels; Antiviral activity against HCV RNA replication across genotypes [4]: pan-genomic
CC(C)OC(=O)[C@H](C)N[P@](=O)(OC[C@H]1O[C@@H](n2ccc(=O)[nH]c2=O)[C@](C)(F)[C@@H]1O)Oc1ccccc1 [Sofosbuvir] | – | – | – | – | – | additive effects | –
Rev-erbα siRNA: rev-erba siRNA duplex from Life technologies, SEQ ID NO 5 and 6, two-base DNA overhang (chain 1 GGUGUCUGAAGAAUGAGAATT; chain 2 UUCUCAUUCUUCAGACACCTT; sugars from the 5' end r19 d2, backbone and methylation of C not given here) | – | – | – | – | rescued | – | HIV promoter activity after siRNA knockdown (HIV virus (NL4.3); 48 h post-siRNA, HIV 24 h (FIG. 11c)): increased HIV promoter activity
